Measurements taken from the supplement of paper PMC8967900.

Legend:
Assay in all cases: selective drug sensitivity score (sDSS, relative to normal bone marrow) (sDSS (score)); higher = more potent and effective on the cell line relative to normal bone marrow cells
Details in all cases: 72 h
[1] = tested on: MHH-CALL-3
[2] = tested on: MOLT-14
[3] = tested on: LC4-1
[4] = tested on: NALM-6
[5] = tested on: ALL-PO
[6] = tested on: COG-LL-332h
[7] = tested on: SUP-B15
[8] = tested on: KASUMI-10
[9] = tested on: HPB-ALL
[10] = tested on: COG-LL-394h
[11] = tested on: COG-LL-317
[12] = tested on: TMD5
[13] = tested on: MOLT-16
[14] = tested on: KOPN-8
[15] = tested on: KARPAS-45
[16] = tested on: P30-OHKUBO
[17] = tested on: MOLT-4
[18] = tested on: NALL-1
[19] = tested on: HAL-01
[20] = tested on: MHH-CALL-4
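Note: ALL cell lines in 384-well plates, five doses spanning 10,000-fold, each plate scaled between vehicle and 100 µmol/L benzalkonium chloride controls, sDSS an adapted area-under-curve metric.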

SMILES	selective drug sensitivity score [1]	selective drug sensitivity score [2]	selective drug sensitivity score [3]	selective drug sensitivity score [4]	selective drug sensitivity score [5]	selective drug sensitivity score [6]	selective drug sensitivity score [7]	selective drug sensitivity score [8]	selective drug sensitivity score [9]	selective drug sensitivity score [10]	selective drug sensitivity score [11]	selective drug sensitivity score [12]	selective drug sensitivity score [13]	selective drug sensitivity score [14]	selective drug sensitivity score [15]	selective drug sensitivity score [16]	selective drug sensitivity score [17]	selective drug sensitivity score [18]	selective drug sensitivity score [19]	selective drug sensitivity score [20]
COc1cc2ncnc(Nc3ccc(F)c(Cl)c3)c2cc1OCCCN1CCOCC1 [Gefitinib] (top concentration 10000 nM)	-2.94	1.96	1.16	-0.44	4.16	2.56	1.56	1.36	-1.14	0.16	0.36	-2.14	3.36	2.96	3.36	-0.04	-0.34	1.06	-0.14	-3.04
CN1CC[C@@H](NC(=O)Nc2ccc(C#N)cc2)C[C@@H]1c1nc2ccccc2[nH]1 [Glasdegib] (top concentration 1000 nM)	0.7	0	0	0	0	1	0	0	0.1	0	1.5	0.3	0	0	0	0	0	0.1	0	0
CN1CCN(C2CCN(C(=O)Nc3cc(Oc4ccc(NC(=O)C5(C(=O)Nc6ccc(F)cc6)CC5)c(F)c4)ccn3)CC2)CC1 [Golvatinib] (top concentration 2500 nM)	-0.14	-0.14	2.46	1.06	3.16	0.86	3.56	3.26	6.76	2.26	-0.14	0.76	-0.14	-0.14	0.76	0.56	-0.14	-0.14	0.76	-0.14
CC(C)C[C@H](NC(=O)[C@@H](COC(C)(C)C)NC(=O)[C@H](Cc1ccc(O)cc1)NC(=O)[C@H](CO)NC(=O)[C@H](Cc1c[nH]c2ccccc12)NC(=O)[C@H](Cc1cnc[nH]1)NC(=O)[C@@H]1CCC(=O)N1)C(=O)N[C@@H](CCCNC(=N)N)C(=O)N1CCC[C@H]1C(=O)NNC(N)=O [Goserelin] (top concentration 10000 nM)	-0.06	-0.06	-0.06	-0.06	-0.06	-0.06	-0.06	-0.06	-0.06	-0.06	-0.06	-0.06	0.14	-0.06	-0.06	-0.06	-0.06	-0.06	-0.06	0.14
